Measurements as given in patent US20190111107A1, “METHODS FOR MODULATING INTESTINAL MICROBIOTA” (DEFENSIN THERAPEUTICS APS, priority 2016, published 2019).
Entries after “also recorded” stand apart in the source; their conditions may differ. Positions of bridges follow the written chain, without caps; N, C: chain ends. No end group written: not given here.

Key:
isolated hepatocytes = conditions: Liu et al. (2008); cited from earlier work
mice fed a high fat diet = assay: Prophylactic treatment with defensins in mice fed a high fat diet: weight, lean/fat mass, glucose homeostasis; type: in vivo, C57/BL/6J mice; conditions: for weight gain compared with HFD reference group: 10 week study, defensin in HFD, 1,2mg hBD2 per kg mouse per day, HD5 equimolar; for visceral fat (eWAT) compared with HFD group / liver weight: at termination; for liver weight: vs HFD and LFD groups; for glucose-stimulated insulin secretion compared with HFD control mice: during the glucose challenge; for Glucose Tolerance test compared with HFD group: oral glucose tolerance test; for HOMA-IR index compared with HFD group: week 9
Procedure: Schematic outline of the experimental set up for investigating the effects of mammalian alfa and/or beta defensins on mice metabolism. At week −1, the C57/BL/6J mice were divided in groups and cages, so that there were 3 mice per cage and cages per group. Between week −1 and 0, the mice were clinically examined by magnetic resonance scan to estimate fat distribution. […] At week 4, in addition to analysis of the microbiota, the mice were scanned and blood glucose and insulin levels were measured. […] At week 7, insulin tolerance test (ITT) was conducted. At week 8, oral glucose tolerance test (OGTT) and glucose-stimulated insulin secretion (GSIS) were conducted. At week 9 (termination), several analyses were conducted, in particular the mice were weighed and scanned, and plasma composition and microbiota composition of colon, cecum and small intestine were assessed.
Mice: Mice were housed in trios, 4 cages per group. Feed intake was registered daily just before lights were turned off (6 pm). Individual mice were subjected to experimental procedures in altered order both group and cage wise. Mice were kept at room temperature under a 12-hour light/dark cycle at SPF standard conditions.
Diets: For dosing, the average weight was estimated to be 25 grams per mouse. They eat approximately 3 grams of feed per mouse per day.
Treatment regime (FIG. 1A): Mice were fed either a high fat diet (HFD) or a low fat (LF) control diet. The HFD contains 4 subgroups; 1 hBD2, 1 HD5, 1 hBD2/HD5 and 1 standard HFD without supplementation of defensins. Defensin concentration is 1,2mg hBD2 per kg mouse per day. HD5 is given in equimolar concentration to hBD2.

diet-induced obese mice = assay: Interventional treatment with defensins in diet-induced obese mice: weight, fat percentage, glucose homeostasis; type: in vivo, C57/BL/6J mice; conditions: for fat percentage / change in fat percentage compared with HFD control: 4 weeks after dietary intervention; for Glucose Tolerance Test after start of intervention: OGTT repeated biweekly from week 13-0; for Insulin Tolerance Test: insulin sensitivity compared with HFD control group: week 9, p<0.05
Excerpt: FIG. 1B. Schematic outline of the experimental set up for investigating the effects of mammalian alfa and/or beta defensins on mice metabolism. At week −1, the C57/BL/6J mice arrived. At week 0 feces was collected. During run-in between week 0 and week 12 the mice were fed a high fat diet. At week 12 the mice were clinically examined by magnetic resonance scan to estimate fat distribution, feces was collected and oral glucose tolerance test (OGTT) and glucose-stimulated insulin secretion (GSIS) performed. At week 13-0 the mice were divided in groups and cages with 4 mice percage and 3 cages per group. At week 0, 12 and 13-10, the microbiome of the faeces was analysed. At week 13-2, 13-4, 13-6, 13-8 and 13-10 the mice were scanned and blood glucose and insulin levels were measured. At week 13-9, insulin tolerance test (ITT) was conducted. At week 13-10 (termination), several analyses were conducted, in particular the mice were weighed and scanned, and plasma composition and microbiota composition of colon, cecum and small intestine were assessed. In addition, iWAT, eWAT and liver weight were measured.
Mice and diets. The experiment elucidates the effect of hBD-2 and HD5 in the treatment of metabolic syndrome (MetS) in diet-induced obese mice. A run-in period of 13 weeks where mice were fed a very HFD (60% energy from fat) preceded the intervention. Only mice meeting the criteria of a minimum of 12 gram weight gain (approximately 50% of initial bodyweight) during the run-in period were included in the final analyses. […] They were exposed to all experimental tests, but excluded from the analyses.
Treatment regimen (FIG. 1B). Before the intervention all mice were MR scanned and an OGTT was performed. Cages of mice were allocated to experimental groups based on their fat mass. All subsequent measures were paired with data from the same mouse before the intervention.
A LFD (low fat diet) reference group was running in parallel. As controls for the intervention 2 additional groups were included: 1 very HFD and 1 LFD. Experimental mice stayed on the very HFD during the intervention. The mice were on the experimental diet for 10 weeks. They were co-housed throughout the experiment, 4 mice per cage, 3 cages per group. All tests ran over 3 days, 1 cage per group per day.

[1] = Pharmacokinetic study of hBD-2 after single oral gavage; type: in vivo, female NMRI mice
Procedure: FIG. 28. Pharmacokinetic data following oral administration of 4 mg/kg hBD-2 to female NMRI mice. […] The results are given as group mean +/−SEM.
Pharmacokinetic study to determine oral bioavailability and establish pharmacokinetic profile of hBD-2 following single oral gavage of 4 mg/kg administration to NMRI mice.
Treatment regimen: 21 female NMRI mice were dosed by oral gavage 5 ml/kg using a gavage tube and a 1 ml syringe according to the individual body weight obtained on the day of dosing. Urine was strived sampled at random time points by gently massaging the inguinal area of the abdomen. The first blood sample was taken using a submandibular sampling method. The second blood sample was collected from Isoflurane anaesthetised mice. Intestinal samples were taken after euthanasia. The abdomen of each mouse was opened and three sections (jejunum, duodenum, and colon) of the intestines were sampled.

[2] = test system: Dextran Sodium Sulphate (DSS) induced colitis; assay: Acute 10-day Dextran Sodium Sulphate (DSS) induced colitis model, hBD-2-albumin fusion C-terminal; type: in vivo, mice; conditions: active control
Procedure: To determine and assess the anti-inflammatory effect of “hBD-2-albumin fusion C-terminal” in an acute 10-day Dextran Sodium Sulphate (DSS) induced colitis model in mice.
Treatment regimen: “hBD-2-albumin C-terminal” was administered intravenously via the tail vein or subcutaneously with the use of a sterile 25G needle in a dosing volume of 10 ml/kg body weight. The animals received 1 dose daily for 10 […] days. The active control Prednisolone (Pred) was given orally by gavage at a dose of 1 mg/kg in a dosing volume of 10 ml/kg body weight OD.

intestinal microbiota = assay: Longitudinal 16S characterization of intestinal microbiota under prophylactic defensin treatment; type: in vivo, mice
Excerpt: FIG. 21A and 21B. The figures illustrate changes from week 1 (Wk1) to week 10 (Wk10) for the four treatments in Example 1: High fat diet with HD5-HF HD5; high fat diet with hBD2−HD hBD2; High fat diet—no treatment: HF; Low fat diet: LF. Weighted unifrac analysis of microbiota at week 1 (21A) and week 10 (21 B) i.e. relative abundance of bacterial species. […] Abbreviations: Wk 1—week 1; W10—week 10.
FIG. 21C. Illustration of the species of microbiota contributing to the change. […] Allobaculum is a short chain fatty acid producing species. Lactobacillus is a bacteria with anti-inflammatory properties.
Microbial analyses were carried out to study the microbiota of the intestine. Longitudinal 16S characterization was conducted on 4 paired samples from 60 mice, 240 samples in total. Each mouse was sampled prior to diet change, 1 week post diet change, 4 weeks post diet change and at termination, thus ensuring a thorough characterization of the faecal microbiota as a result of defensin treatment.

human neutrophil peptide 2 (CYCRIPACIAGERRYGTCIYQGRLWAFCC; ends and bridges not checked; cysteine pairing not given here; UniProt P59665 66-94, looked up) [HNP-2, α-defensin produced by leucocytes]
inhibition of glycogenolysis and gluconeogenesis (isolated hepatocytes): able to inhibit glycogenolysis and gluconeogenesis in isolated hepatocytes

human neutrophil peptide 1 [HNP-1]
inhibition of glycogenolysis and gluconeogenesis (isolated hepatocytes): able to inhibit glycogenolysis and gluconeogenesis in isolated hepatocytes

GIGDPVTCLKSGAICHPVFCPRRYKQIGTCGLPGTKCCKKP (disulfide 8-37, 15-30, 20-38 (inferred)) [hBD-2, human beta defensin 2]
weight gain compared with HFD reference group (mice fed a high fat diet): gained significantly less weight than the HFD reference group | share of defensin-fed mice with a Body Fat Percent resembling LFD reference mice (mice fed a high fat diet; 60% HFD): 50% | visceral fat mass of the best protected mice compared with LFD reference mice (mice fed a high fat diet; 60% HFD): same or smaller visceral fat mass than LFD reference mic | lean mass gained at the end of the study compared with HFD group (mice fed a high fat diet; HFD plus hBD-2 vs HFD): gained the same amount of lean mass | fat mass at the end of the study compared to the LFD group (mice fed a high fat diet; HFD plus hBD-2 vs LFD, p=0.25): trended towards increased fat mass compared to the LFD group | visceral fat (eWAT) compared with HFD group (mice fed a high fat diet): significantly less visceral fat (eWAT) than the HFD group | liver weight (mice fed a high fat diet): no statistical difference between the three groups in terms of liver weight | Glucose Stimulated Insulin Secretion: insulin concentration compared with LFD group (mice fed a high fat diet; during the GTT, week 7): higher but not significantly different insulin concentration than the LFD group; also recorded: higher but not significantly different insulin concentration from the LFD group | glucose-stimulated insulin secretion compared with HFD control mice (mice fed a high fat diet): glucose stimulated insulin response during the glucose challenge was improved | amount of fat mass gained by the HFD group compared to the HFD plus hBD-2 group (mice fed a high fat diet; first analysis, p=0.005): 2 times | Insulin Tolerance test: compared with LFD reference group (mice fed a high fat diet; mouse, in vivo): no statistical significant difference between the LFD reference group and the HFD plus hBD-2 group | Insulin Tolerance test: insulin sensitivity compared with HFD group (mice fed a high fat diet; mouse, in vivo): significantly more sensitive to insulin than the HFD group | Glucose Tolerance test compared with HFD group (mice fed a high fat diet; week 7): slightly prolonged glucose clearance but reached significantly lower glucose levels than the HFD group | Glucose Tolerance test compared with HFD group (mice fed a high fat diet; week 7, listed as hBD2): Glucose tolerance was markedly improved compared to HFD control mice | Five Hour Fasting insulin: HFD group compared with HFD plus hBD-2 group (mice fed a high fat diet; p=0.057): borderline significantly higher fasting insulin than the HFD plus hBD-2 group | Five Hour Fasting insulin: LFD compared with HFD plus hBD-2 group (mice fed a high fat diet; p=0.17): no significant difference between the LFD and HFD plus hBD-2 groups | amount of fat mass in percent of total body weight gained by the HFD group compared to the HFD plus hBD-2 group (mice fed a high fat diet; re-analysis, p=0.005): two times | HOMA-IR index compared with HFD group (mice fed a high fat diet): statistically significantly lower | fat percentage / change in fat percentage compared with HFD control (diet-induced obese mice): significantly smaller | Glucose Tolerance Test after start of intervention (diet-induced obese mice): smaller peak in blood glucose as well as a faster clearance of glucose already after 2 weeks | obese and glucose intolerant mice that significantly improved their glucose tolerance (diet-induced obese mice; following 2 weeks of intervention): 7/8 | visceral fat (eWAT) at termination compared with HFD control (diet-induced obese mice; mouse, in vivo): no significant difference in visceral fat (eWAT) between the HFD fed groups | weight gain the first 4 weeks post dietary intervention compared with standard HFD group (diet-induced obese mice; p=0.07): tended to gain less weight the first 4 weeks post dietary intervention, although not significantly | weight gain from week 4 to the end of the study period compared with standard HFD group (diet-induced obese mice; p=0.82): gained similar weight as the standard HFD group | Insulin Tolerance Test: insulin sensitivity compared with HFD control group (diet-induced obese mice): more insulin sensitive compared to the HFD control group | share of the group with a smaller fat percentage than before the intervention (diet-induced obese mice; weeks 4 post dietary intervention): ~75% | systemic availability after oral dosing ([1]; 4 mg/kg oral, mice): not systemically available | time hBD2 remains detectable in the colon content after administration ([1]; oral 4 mg/kg): up to 360 minutes

C[C@]12C=CC(=O)C=C1CC[C@@H]1[C@@H]2[C@@H](O)C[C@@]2(C)[C@H]1CC[C@]2(O)C(=O)CO [Prednisolon, Prednisolone]
DAI ([2]; 1 mg/kg orally by gavage daily, p<0.05): significant inhibition of the DAI on day 9 | histological injury in the proximal part of the colon ([2]; 1 mg/kg orally daily): failed to significantly reduce histological injury in the proximal part of the colon | histological injury in the distal colon ([2]; 1 mg/kg orally daily, p<0.01): did reduce the injury in the distal colon

human intestinal alpha defensin 5 (ATCYCRTGRCATRESLSGVCEISGRLYRLCCR; listed as Homo sapiens) [HD5]
weight gain compared with HFD reference group (mice fed a high fat diet): gained less weight than HFD-fed control mice (FIG. 17A), although the effect was not statistically significant | visceral fat (eWAT) compared with HFD group (mice fed a high fat diet): borderline less visceral fat | liver weight (mice fed a high fat diet): No statistically significant difference with respect to liver weight | glucose-stimulated insulin secretion compared with HFD control mice (mice fed a high fat diet): no significant improvement | Insulin Tolerance test: insulin sensitivity compared with HFD group (mice fed a high fat diet; mouse, in vivo): no significant improvement | fat % compared with HFD-fed control mice (mice fed a high fat diet; mouse, in vivo): borderline less fat % | feed efficiency compared with HFD-fed control mice (mice fed a high fat diet; mouse, in vivo): tendency towards lower feed efficiency | Glucose Tolerance test compared with HFD group (mice fed a high fat diet; week 7): no significant improvement | HOMA-IR index compared with HFD group (mice fed a high fat diet): no significant improvement | fat percentage / change in fat percentage compared with HFD control (diet-induced obese mice): significantly lower fat percentage | fat percentage of total body weight over time (diet-induced obese mice; 10 weeks intervention): tendency of decreasing fat percentage | weight gain after dietary intervention compared with HFD control (diet-induced obese mice; 10 weeks on experimental diet): gained significantly less weight than the HFD control | Glucose Tolerance Test after start of intervention (diet-induced obese mice): improved over time | visceral fat (eWAT) at termination compared with HFD control (diet-induced obese mice; mouse, in vivo): not significantly different | weight of the liver at termination compared to the HFD control (diet-induced obese mice; mouse, in vivo): tended to be decreased | Insulin Tolerance Test: insulin sensitivity compared with HFD control group (diet-induced obese mice): more insulin sensitive than the HFD control | microflora composition (weighted unifrac analysis) relative to LFD and non-treated HFD groups (intestinal microbiota; after 10 weeks, oral HD5 in HFD): gradually approached the bacterial flora of mice fed a LFD; also recorded: partial normalization of the microflora | abundance of bacterial genera in the intestinal microbiota compared with non-treated HFD mice (intestinal microbiota; at termination): increased abundance of Allobaculum and Lactobacillus and a decrease in abundance of Clostridium
